{"source": "paper PMC4633220", "about": "“Antiaggregation Potential of Padina gymnospora against the Toxic Alzheimer’s Beta-Amyloid Peptide 25–35 and Cholinesterase Inhibitory Property of Its Bioactive Compounds” (PLoS ONE, 2015)", "key": {"[1]": {"test_system": "T1, Aβ 25–35 pre-formed fibrils", "T1 construct": "Aβ 25–35 peptide was purchased from GenScript USA Inc; purchased GenScript USA Inc", "assay": "Thioflavin T assay, Phase II: disaggregation of pre-formed mature fibrils", "type": "biochemical", "conditions": "pre-formed Aβ 25–35 fibrils with ACTPG 250 μg/ml or galantamine 50 μM", "method": "According to the method of Ramesh et al the anti-aggregation and disaggregation property of P. gymnospora was evaluated in two different phases. In phase I, the inhibition of aggregate formation was assessed by using oligomers. Consequently, in Phase II the disaggregation of the pre-formed fibrils were determined. Freshly prepared Aβ 25–35 (100 μM) monomer was incubated in Tris-HCl buffer pH 7.4 at 37°C for 20 h. However, after 20 h, an increase in fluorescence intensity was observed which represents the formation of oligomers. The acetone extract of P. gymnospora (ACTPG) (250 and 500 μg/ml) was added to the oligomers and subjected to incubation at 48 h for dose fixation. […] In phase I, the freshly prepared Aβ 25–35 (100 μM) was incubated with ACTPG (250 μg/ml), and the aggregation pattern was evaluated by ThT assay with the aliquots taken from the incubation mixture at 20 h and 48 h respectively. […] After that, ACTPG (250 μg/ml) was co-incubated with the pre-formed fibrils, and the disaggregation pattern was evaluated by taking the aliquots of incubation mixture at 96 h and 9 days using Thioflavin T assay using the standard Galantamine (50μM) as a positive control. […]\nThioflavin T-induced fluorescence changes were measured to quantify amyloid fibril formation by spectrofluorimeter (Microplate Analyzer) as described by. […]"}, "[2]": {"molecular_target": "T2, AChE from Electric eel (Electrophorus electricus, UniProt O42275)", "T2 construct": "AChE from Electric eel (Type-VI-S, EC 3.1.1.7, Sigma); purchased Sigma Type-VI-S", "T2 sequence (O42275 24-633)": "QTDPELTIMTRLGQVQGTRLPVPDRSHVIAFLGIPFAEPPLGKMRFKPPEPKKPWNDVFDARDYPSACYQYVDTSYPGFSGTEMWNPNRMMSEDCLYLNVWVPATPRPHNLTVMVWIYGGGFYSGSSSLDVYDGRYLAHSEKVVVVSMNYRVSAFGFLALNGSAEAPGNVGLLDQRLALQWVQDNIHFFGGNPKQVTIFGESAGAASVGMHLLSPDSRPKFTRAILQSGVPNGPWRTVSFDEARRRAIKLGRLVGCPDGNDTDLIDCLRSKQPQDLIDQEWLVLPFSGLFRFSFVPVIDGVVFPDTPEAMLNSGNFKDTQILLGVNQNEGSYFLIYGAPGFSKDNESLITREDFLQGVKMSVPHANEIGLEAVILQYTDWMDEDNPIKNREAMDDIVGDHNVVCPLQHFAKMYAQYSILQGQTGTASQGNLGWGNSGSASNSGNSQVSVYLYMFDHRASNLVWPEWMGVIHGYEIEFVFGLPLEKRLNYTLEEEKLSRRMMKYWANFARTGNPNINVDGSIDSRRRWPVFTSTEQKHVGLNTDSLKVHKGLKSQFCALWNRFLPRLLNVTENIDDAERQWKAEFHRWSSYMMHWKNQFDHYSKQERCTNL", "assay": "AChE inhibitory assay (modified Ellman 96-well microplate)", "type": "biochemical", "method": "(§1) ChE inhibitory activities were measured using a modified 96-well microplate assay developed by. […] After incubation, 125 μl of 3 mM DTNB was added and the total volume was made up to 300 μl with Tris- HCl buffer (pH 8.0/7.4). Enzyme activity was initiated by the addition of 50 μl of 15 mm ATCI/BTCI. […] AChE activity was expressed as U/mg of protein (1U = μmol of thiocholine iodide formed/min/mg protein). […] Percentage of inhibition of AChE/BuChE was determined by comparison of rates of reaction of samples relative to the blank (Tris-HCl buffer) using the formula, where SA is the specific activity.\n(§2) % of inhibition = [(SA of control − SA of test sample) / SA of control]*100"}, "[3]": {"molecular_target": "T3, BuChE from horse serum (Equus caballus, UniProt P81908)", "T3 construct": "BuChE from horse serum (EC 3.1.1.8, MP Biomedicals); purchased MP Biomedicals; host or cells: horse serum", "T3 sequence (P81908 whole entry)": "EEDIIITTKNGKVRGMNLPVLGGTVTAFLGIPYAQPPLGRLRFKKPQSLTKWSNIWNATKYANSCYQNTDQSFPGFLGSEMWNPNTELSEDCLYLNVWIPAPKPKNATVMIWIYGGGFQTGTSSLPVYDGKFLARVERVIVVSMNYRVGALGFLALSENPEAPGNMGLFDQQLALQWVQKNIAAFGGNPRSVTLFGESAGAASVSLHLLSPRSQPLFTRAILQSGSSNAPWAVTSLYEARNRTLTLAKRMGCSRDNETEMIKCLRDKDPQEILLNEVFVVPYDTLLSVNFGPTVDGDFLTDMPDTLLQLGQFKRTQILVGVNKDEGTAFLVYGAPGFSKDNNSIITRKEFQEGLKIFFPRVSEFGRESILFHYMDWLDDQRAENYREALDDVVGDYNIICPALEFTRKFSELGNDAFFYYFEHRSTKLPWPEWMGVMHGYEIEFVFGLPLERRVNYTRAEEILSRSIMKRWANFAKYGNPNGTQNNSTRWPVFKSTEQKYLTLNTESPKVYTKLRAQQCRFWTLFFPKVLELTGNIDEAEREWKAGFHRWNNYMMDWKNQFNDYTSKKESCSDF", "assay": "biochemical", "method": "as §1, §2"}}}
{"smiles": "COc1ccc2c3c1O[C@H]1C[C@@H](O)C=C[C@@]31CCN(C)C2", "note": "[Galantamine]", "values": [{"measurement": "Thioflavin T fluorescence intensity", "setting": "[1]; 96 h, Aβ alone 4.67 ± 0.28 AU", "value": "3.62 ± 0.55", "unit": "AU"}, {"measurement": "Thioflavin T fluorescence intensity", "setting": "[1]; 9 days, Aβ alone 6.06 ± 0.47 AU", "value": "2.86 ± 0.94", "unit": "AU"}]}
{"smiles": "CC(C)=CCC[C@](C)(O)[C@@H]1CC=C(C)CC1", "note": "[alpha-bisabolol, Alpha-bisabolol]", "values": [{"measurement": "IC50", "setting": "[2]", "value": "< 45", "unit": "µM"}, {"measurement": "inhibition at 50 µg/mL", "setting": "[2]; read-out: maximum AChE inhibitory activity", "value": 87, "unit": "%"}, {"measurement": "IC50", "setting": "[3]", "value": "< 45", "unit": "µM"}, {"measurement": "inhibition at up to 50 µg/mL", "setting": "[3]; 10–50 μg/ml tested, at 50 μg/ml, read-out: maximum BuChE inhibitory activity", "value": 66, "unit": "%"}]}
